Test [1] concerns BHK. Description: Inhibition of dog NCX1 expressed in BHK cells assessed as decrease in Na+ free solution induced calcium level at 0.01 to 10 uM by Fluo-4 AM dye based assay. The note with it: Canis lupus familiaris, dose 0.01-10 µM. The class given is cell-based.
The subject of test [2] is Cortical neurone. Description: Neuroprotective activity against rat primary cortical neurons assessed as reduction in cell injury under hypoxic condition by MTT assay. The class given is functional, cell-based. The conditions noted are these: dose 10.0 µM. On the technique in general: Tetrazolium assays rely on reduction of a dye to a coloured formazan, in cell work by metabolically active cells.

Test [3] relates to BHK. Description: Inhibition of dog NCX1 expressed in BHK cells assessed as decrease in Na+ free solution induced calcium level at 10 uM by Fluo-2 AM dye based assay. The conditions noted are these: Canis lupus familiaris. In kind it is cell-based.
For test [4], the system named is BHK. Description: Activation of dog NCX1 expressed in BHK cells assessed as increase in Na+ free solution induced calcium level at 0.1 to 10 uM by fluo-4 AM dye based assay. The class given is cell-based. The note with it: Canis lupus familiaris, filed as activator, dose 0.1-10 µM.
Test [5] concerns BHK. The test can be described thus: Activation of dog NCX3 expressed in BHK cells assessed as increase in Na+ free solution induced calcium level at 0.1 to 10 uM by fluo-4 AM dye based assay. The conditions noted are these: Canis lupus familiaris, filed as activator, dose 0.1-10 µM. In kind it is cell-based.
Test [6] deals with BHK. The test can be described thus: Activation of dog NCX1 expressed in BHK cells assessed as increase in Na+ free solution induced calcium level at 10 uM by fluo-2 AM dye based assay. In kind it is cell-based. The conditions noted are these: Canis lupus familiaris, filed as activator.
Test [7] deals with BHK. The test can be described thus: Activation of dog NCX3 expressed in BHK cells assessed as increase in Na+ free solution induced calcium level at 10 uM by fluo-2 AM dye based assay. In kind it is cell-based. The note with it: Canis lupus familiaris, filed as activator.
In test [8] the test system is BHK. Description: Activation of dog NCX1 expressed in BHK cells assessed as forward NCX current at 10 uM at -120 mV holding potential by whole-cell patch clamp electrophysiology method. The note with it: Canis lupus familiaris, filed as activator. The class given is cell-based. Background: In patch-clamp work, channel activity is measured electrically.
For test [9], the system named is BHK. Description: Activation of dog NCX1 expressed in BHK cells assessed as reverese NCX current at 10 uM at +60 mV holding potential by whole-cell patch clamp electrophysiology method. The conditions noted are these: Canis lupus familiaris, filed as activator. In kind it is cell-based.
The subject of test [10] is BHK. The test can be described thus: Activation of dog NCX3 expressed in BHK cells assessed as forward NCX current at 10 uM at -120 mV holding potential by whole-cell patch clamp electrophysiology method. In kind it is cell-based. The conditions noted are these: Canis lupus familiaris, filed as activator.
Test [11] concerns BHK. Description: Activation of dog NCX3 expressed in BHK cells assessed as reverse NCX current at 10 uM at + 60 mV holding potential by whole-cell patch clamp electrophysiology method. In kind it is cell-based. The conditions noted are these: Canis lupus familiaris, filed as activator.
The subject of test [12] is Cortical neurone. Description: Neuroprotective activity against rat primary cortical neurons assessed as reduction in cell injury at 10 uM preincubated with compound followed by compound washout and OGD and RX exposure by MTT assay. In kind it is functional, cell-based.
Test [13] can be described thus: Inhibition of dog NCX1 expressed in BHK cells assessed as decrease in Na+ free solution induced calcium level by patch-clamp electrophysiology assay. The class given is cell-based. The note with it: Canis lupus familiaris.
Test [14] deals with Cortical neurone. Description: Neuroprotective activity against rat primary cortical neurons assessed as reduction in cell injury under RX and chemical hypoxia condition by MTT assay. In kind it is functional, cell-based. The note with it: dose 10.0 µM.

SMILES strings stand for the structures. pIC50: −log10 of the molar value. Active and inactive are the calls of the source. No cut-off for these calls is given here.

In the case of `O=C1CN=C(c2ccccc2)c2cc([N+](=O)[O-])ccc2N1CCN1CCCC1`, the inhibition result in the test on BHK [1] and with BHK [3] was “Active” each time. Further, in the test on Cortical neurone [2], the outcome was inactive.

`CC1CCCCN1C(=O)CN1C(=O)CN=C(c2ccccc2)c2cc([N+](=O)[O-])ccc21` (stereo not drawn): the result in the test with BHK [4], in the test with BHK [5], in the test with BHK [6], in the test on BHK [7], in the test on BHK [8] and in the test on BHK [9] was Active. The result with BHK [10] and in the test with BHK [11] was Active. In the test with Cortical neurone [2], the outcome was inactive.

As for `O=C1CN=C(c2ccccc2Cl)c2cc([N+](=O)[O-])ccc2N1CN1CCCC1`, the outcome in the test with Cortical neurone [12], with BHK [4] and with BHK [6] was Active. Moreover, in test [13], the negative logarithm of the IC50 (pIC50) (usually −log10 of the IC50, conventionally taken in molar units) was 5.00. Also, the Activity result in the test on Cortical neurone [2] and in the test with Cortical neurone [14] was “Dose-Dependent Effect” each time.

The values are drawn from ChEMBL document CHEMBL5036354, “New Insights into the Structure-Activity Relationship and Neuroprotective Profile of Benzodiazepinone Derivatives of Neurounina-1 as Modulators of the Na+/Ca2+ Exchanger Isoforms” (J Med Chem, 2021).
